Literature values, collected in PubChem BioAssay AID1259410 (Chemical Carcinogenesis Research Information System (CCRIS), 2018).

System: rodent tumor promotion studies, tumor incidence
Test: CCRIS tumor promotion studies

For `CCCCCC1(CCCCCC(=O)OC23C(OC(C)=O)C(C)C4(O)C(C=C(CO)CC5(O)C(=O)C(C)=CC54)C2C3(C)C)OCC(C)(C)N1[O]` (stereo unspecified), the outcome (Carcinogen: 7,12-DIMETHYLBENZ[A]ANTHRACENE, 57-97-6, Doses [Carcinogen]: 100 NMOL ONCE, Doses [Promoter]: 0, 20 NMOL 2/WK FOR 24 WK BEGINNING 1 WK POST CARCINOGEN DOSE (STUDY DURATION: 25 WK), Route [Carcinogen]: DERMAL, Route [Promoter]: DERMAL, Species: MOUSE, Strain/Sex: NMRI/FEMALE) is listed as “skin: tumor”.

In the case of `Clc1c(Cl)c(Cl)c(Cl)c(Cl)c1Cl`, the outcome (Carcinogen: DIETHYLNITROSAMINE, 55-18-5, Doses [Carcinogen]: 0.015% IN DRINKING WATER FOR 3 WK, Doses [Promoter]: 0, 0.02% IN DIET (10.5 MG/KG/D) FOR 30 WK BEGINNING 2 WK AFTER LAST CARCINOGEN DOSE (STUDY DURATION: 35 WK), Route [Carcinogen]: ORAL, Route [Promoter]: ORAL, Species: RAT, Strain/Sex: F344/MALE) is given as “liver: hepatocellular carcinoma” and the outcome (Carcinogen: DIETHYLNITROSAMINE, 55-18-5, Doses [Carcinogen]: 0.015% IN DRINKING WATER FOR 3 WK, Doses [Promoter]: 0, 0.02% IN DIET (12 MG/KG/D) FOR 30 WK BEGINNING 2 WK AFTER LAST CARCINOGEN DOSE (STUDY DURATION: 35 WK), Route [Carcinogen]: ORAL, Route [Promoter]: ORAL, Species: RAT, Strain/Sex: F344/FEMALE) is given as “liver: hepatocellular carcinoma”.

In the case of `Clc1cc2c(cc1Cl)Oc1cc(Cl)c(Cl)cc1O2`, the outcome (Carcinogen: 7,12-DIMETHYLBENZ(A)ANTHRACENE, Doses [Carcinogen]: 0.2 UMOL, Route [Carcinogen]: DERMAL, Route [Promoter]: DERMAL, Species: MOUSE, Strain/Sex: HRS/FEMALE) is given as “integumentary system (skin): papilloma”, the outcome (Carcinogen: DIETHYLNITROSAMINE [55-18-5], Doses [Carcinogen]: 175 MG/KG BW ONCE AT 10 WK OF AGE (STUDY DURATION: 32 WK), Doses [Promoter]: 1750 NG/KG IN CORN OIL 1X/2 WK FOR 14 WK BEGINNING 18 WK POST CARCINOGEN DOSE (STUDY DURATION: 32 WK), Route [Carcinogen]: INTRAPERITONEAL, Route [Promoter]: GAVAGE, Species: RAT, Strain/Sex: SPRAGUE-DAWLEY/FEMALE) is given as “ovary: tumor” and the outcome (Carcinogen: DIETHYLNITROSAMINE [55-18-5], Doses [Carcinogen]: 175 MG/KG BW ONCE AT 10 WK OF AGE (STUDY DURATION: 32 WK), Doses [Promoter]: 1750 NG/KG IN CORN OIL 1X/2 WK FOR 30 WK BEGINNING 2 WK POST CARCINOGEN DOSE (STUDY DURATION: 32 WK), Route [Carcinogen]: INTRAPERITONEAL, Route [Promoter]: GAVAGE, Species: RAT, Strain/Sex: SPRAGUE-DAWLEY/FEMALE) is given as “ovary: tumor”. For the same compound, the outcome (Carcinogen: DIETHYLNITROSAMINE [55-18-5], Doses [Carcinogen]: 175 MG/KG BW ONCE AT 10 WK OF AGE (STUDY DURATION: 48 WK), Doses [Promoter]: 1750 NG/KG IN CORN OIL 1X/2 WK FOR 30 WK BEGINNING 2 WK POST CARCINOGEN DOSE (STUDY DURATION: 48 WK), Route [Carcinogen]: INTRAPERITONEAL, Route [Promoter]: GAVAGE, Species: RAT, Strain/Sex: SPRAGUE-DAWLEY/FEMALE) was “ovary: tumor”, the outcome (Carcinogen: DIETHYLNITROSAMINE [55-18-5], Doses [Carcinogen]: 175 MG/KG BW ONCE AT 10 WK OF AGE (STUDY DURATION: 48 WK), Doses [Promoter]: 1750 NG/KG IN CORN OIL 1X/2 WK FOR 30 WK BEGINNING 18 WK POST CARCINOGEN DOSE (STUDY DURATION: 48 WK), Route [Carcinogen]: INTRAPERITONEAL, Route [Promoter]: GAVAGE, Species: RAT, Strain/Sex: SPRAGUE-DAWLEY/FEMALE) was “ovary: tumor” and the outcome (Carcinogen: DIETHYLNITROSAMINE [55-18-5], Doses [Carcinogen]: 175 MG/KG BW ONCE AT 10 WK OF AGE (STUDY DURATION: 54 WK), Doses [Promoter]: 1750 NG/KG IN CORN OIL 1X/2 WK FOR 30 WK BEGINNING 18 WK POST CARCINOGEN DOSE (STUDY DURATION: 54 WK), Route [Carcinogen]: INTRAPERITONEAL, Route [Promoter]: GAVAGE, Species: RAT, Strain/Sex: SPRAGUE-DAWLEY/FEMALE) was “ovary: tumor”. For the same compound, the outcome (Carcinogen: DIETHYLNITROSAMINE [55-18-5], Doses [Carcinogen]: 175 MG/KG BW ONCE AT 10 WK OF AGE (STUDY DURATION: 62 WK), Doses [Promoter]: 1750 NG/KG IN CORN OIL 1X/2 WK FOR 30 WK BEGINNING 2 WK POST CARCINOGEN DOSE (STUDY DURATION: 62 WK), Route [Carcinogen]: INTRAPERITONEAL, Route [Promoter]: GAVAGE, Species: RAT, Strain/Sex: SPRAGUE-DAWLEY/FEMALE) was “ovary: tumor”, the outcome (Carcinogen: DIETHYLNITROSAMINE [55-18-5], Doses [Carcinogen]: 175 MG/KG BW ONCE AT 10 WK OF AGE (STUDY DURATION: 62 WK), Doses [Promoter]: 1750 NG/KG IN CORN OIL 1X/2 WK FOR 60 WK BEGINNING 2 WK POST CARCINOGEN DOSE (STUDY DURATION: 62 WK), Route [Carcinogen]: INTRAPERITONEAL, Route [Promoter]: GAVAGE, Species: RAT, Strain/Sex: SPRAGUE-DAWLEY/FEMALE) was “ovary: tumor” and the outcome (Carcinogen: DIETHYLNITROSAMINE, 55-18-5, Doses [Carcinogen]: 10 MG/KG ONCE, Doses [Promoter]: 0, 150 PPT IN DIET FOR DURATION OF STUDY BEGINNING 30 D POST CARCINOGEN DOSE (STUDY DURATION: 450 D), Route [Carcinogen]: INTRAPERITONEAL, Route [Promoter]: ORAL, Species: RAT, Strain/Sex: SPRAGUE-DAWLEY/FEMALE) was “liver: adenoma or carcinoma”. The outcome (Carcinogen: DIETHYLNITROSAMINE, 55-18-5, Doses [Carcinogen]: 90 MG/KG BW ONCE, Doses [Promoter]: 0, 0.5 UG/KG 1/WK FOR 20 WK BEGINNING 3 WK POST CARCINOGEN DOSE (STUDY DURATION: 47 WK), Route [Carcinogen]: INTRAPERITONEAL, Route [Promoter]: INTRAPERITONEAL, Species: MOUSE, Strain/Sex: B6D2F1/MALE) was “liver: tumor”, the outcome (Carcinogen: N-NITROSODIMETHYLAMINE, 62-75-7, Doses [Carcinogen]: 25 MG/KG ONCE AT 5 WK OF AGE, Doses [Promoter]: 0, 0.05 UG/KG/WK FOR 20 WK BEGINNING 3 WK POST CARCINOGEN DOSE (STUDY DURATION: 52 WK), Route [Carcinogen]: INTRAPERITONEAL, Route [Promoter]: INTRAPERITONEAL, Species: MOUSE, Strain/Sex: SWISS/MALE) was “lung: tumor” and the outcome (Carcinogen: N-NITROSODIMETHYLAMINE, 62-75-7, Doses [Carcinogen]: 25 MG/KG ONCE AT 5 WK OF AGE, Doses [Promoter]: 0, 1.6 UG/KG ONCE 3 WK POST CARCINOGEN DOSE (STUDY DURATION: 52 WK), Route [Carcinogen]: INTRAPERITONEAL, Route [Promoter]: INTRAPERITONEAL, Species: MOUSE, Strain/Sex: SWISS/MALE) was “lung: tumor”. For the same compound, the outcome (Doses [Carcinogen]: 5 UMOL IN 50 µL ACETONE, Doses [Promoter]: 3.75, 7.5, 15, 30 NG 2/WK, Doses [Promoter]: 3.75, 7.5, 15, 30 NG 2/WK, Route [Carcinogen]: DERMAL, Route [Promoter]: DERMAL, Species: MOUSE, Strain/Sex: HRS/FEMALE) was “integumentary system (skin): papilloma”.

For `O=S1(=O)N=C(O)c2ccccc21`, the outcome (Carcinogen: N-[4-(5-NITRO-2-FURYL)-2-THIAZOLYL]FORMAMIDE, 24554-26-5, Doses [Carcinogen]: 0.2% IN DIET FOR 6 WK, Doses [Promoter]: 0, 3.12% IN PROLAB DIET FOR 72 WK BEGINNING POST CARCINOGEN TREATMENT (STUDY DURATION: 78 WK), Route [Carcinogen]: ORAL, Route [Promoter]: ORAL, Species: RAT, Strain/Sex: F344/MALE) is given as “urinary bladder: carcinoma” and the outcome (Carcinogen: N-[4-(5-NITRO-2-FURYL)-2-THIAZOLYL]FORMAMIDE, 24554-26-5, Doses [Carcinogen]: 0.2% IN DIET FOR 6 WK, Doses [Promoter]: 0, 5.2% IN PROLAB DIET FOR 72 WK BEGINNING POST CARCINOGEN TREATMENT (STUDY DURATION: 78 WK), Route [Carcinogen]: ORAL, Route [Promoter]: ORAL, Species: RAT, Strain/Sex: F344/MALE) is given as “urinary bladder: carcinoma, carcinoma or papilloma”.

For `CC1=C[C@H]2[C@@]3(O)[C@H](C)[C@@H](OC(=O)c4ccccc4)[C@]4(OC(=O)c5ccccc5)[C@H]([C@@H]3C=C(CO)C[C@]2(O)C1=O)C4(C)C`, the outcome (Carcinogen: 7,12-DIMETHYLBENZ(A)ANTHRACENE, Doses [Carcinogen]: TOP, Route [Carcinogen]: DERMAL, Route [Promoter]: DERMAL, Species: MOUSE, Strain/Sex: MALE,FEMALE) is given as “integumentary system (skin)”.

For `C=C/C=C\C1C2/C=C/CC(=O)O[C@@]34C[C@@H](C)[C@]5(O)C6C=C(C)C(=O)[C@@]6(O)CC(CO)=C[C@H]5[C@@H]3[C@@]4(C)COC(=O)C2C2C(/C=C/C=C/C=C/CCC)C12` (stereo partly specified), the outcome (Carcinogen: 7,12-DIMETHYLBENZ[A]ANTHRACENE, 57-97-6, Doses [Carcinogen]: 100 UG IN O.1 ML ACETONE, Doses [Promoter]: 0, 2 UG IN 0.1 ML OF METHANOL 2/WK FOR 16 WK BEGINNING 1 WK POST CARCINOGEN DOSE THEN 5 UG 2/WK FOR 13 WK (STUDY DURATIO, Route [Carcinogen]: DERMAL, Route [Promoter]: DERMAL, Species: MOUSE, Strain/Sex: CD-1/FEMALE) is listed as “skin: tumor”.

For `CCCCCCCCCC(=O)OC`, the outcome (Carcinogen: 7,12-DIMETHYLBENZ(A)ANTHRACENE, Doses [Carcinogen]: TOP, Route [Carcinogen]: DERMAL, Route [Promoter]: DERMAL, Species: MOUSE, Strain/Sex: FEMALE) is given as “integumentary system (skin)”.
